The record followed here is article PMC4872784 (Oncotarget, 2016).

The test system of one assay is SEM cells. Nature of the assay: alamarBlue cytotoxicity assay, 48h. Format: cell-based, human. Here is the method:
(§1) Following subtraction of background fluorescence from all wells, fluorescence of drug-treated cells was normalized to that of vehicle (<0.5% DMSO)-treated cells to determine the effect of each drug concentration on viability. Each cell line was tested in triplicate and in at least three independent experiments. IC50 (concentration that inhibits cell growth by 50%) values were calculated using CompuSyn software (ComboSyn, Paramus, NJ). […] In addition several cell lines were initially cultured and tested in alternative media (Supplementary Table S2). […] Colony counts were normalized to vehicle-treated controls (100%). Three independent experiments were performed.
(§2) In most experiments, cytotoxicity was assessed using alamarBlue assays (Life Technologies, Grand Island, NY). In experiments using NAC and DFO, which can interfere with alamarBlue assay performance, Trypan Blue dye exclusion was used instead. […]
(§3) experiments performed in triplicate. […] Age refers to age […]
(§4) at the time of leukemia diagnosis of the patient from whom the cell line was derived. (–) Indicates information unavailable.
(§5) *Cell lines with FLT3/ITD mutations.
(§6) *The MV-4–11 cell line was derived from a patient with a biphenotypic B-myelomonocytic leukemia; K562 was derived […]
(§7) 1A. p53 status was obtained from http://cancer.sanger.ac.uk/cell_lines/cbrowse/all and http://p53.free.fr/Database/Cancer_ cell_lines/Leukemia_cancer. html. WT: wild type. Mut: mutant. SM: single mutation. DM: double mutation. MM: multiple mutations. Fs: Frameshift mutation. Null: protein expression undetectable.
(Resazurin is reduced to fluorescent resorufin, in cell work by metabolically active cells.)

Another assay relates to CCRF-CEM cells. Nature of the assay: alamarBlue cytotoxicity assay, 48h. Format: cell-based, human. Conditions: CCRF-CEM (T-ALL), RPMI + 10% FBS. Here is the method:
as §1, §2, §3, §4, §5, §6, §7

The next assay has as its system RCH-ACV cells. The assay can be described thus: alamarBlue cytotoxicity assay, 48h. Type of assay: cell-based, human. Conditions: RCH-ACV (B-ALL), RPMI + 10% FBS. Here is the method:
as §1, §2, §3, §4, §5, §6, §7

The next assay concerns Jurkat cells. The assay can be described thus: alamarBlue cytotoxicity assay, 48h. Type of assay: cell-based, human. Conditions: Jurkat (T-ALL), RPMI + 10% FBS. As for the experimental part: as §1, §2, §3, §4, §5, §6, §7
A further assay has as its system Kasumi-2 cells. Nature of the assay: alamarBlue cytotoxicity assay, 48h. Type of assay: cell-based, human. Conditions: Kasumi-2 (B-ALL), RPMI + 10% FBS. Here is the method: as §1, §2, §3, §4, §5, §6, §7
The subject of a further assay is MOLT-3 cells. Nature of the assay: alamarBlue cytotoxicity assay, 48h. Format: cell-based, human. Particulars: MOLT-3 (T-ALL), RPMI + 10% FBS. As for the experimental part:
as §1, §2, §3, §4, §5, §6, §7

The test system of the next assay is K562 cells. Nature of the assay: alamarBlue cytotoxicity assay, 48h. Conditions: K562 (CML), RPMI + 10% FBS. Type of assay: cell-based, human. As for the experimental part:
as §1, §2, §3, §4, §5, §6, §7

A further assay has as its system MOLT-16 cells. The assay can be described thus: alamarBlue cytotoxicity assay, 48h. Type of assay: cell-based, human. Conditions: MOLT-16 (T-ALL), RPMI + 10% FBS. Here is the method: as §1, §2, §3, §4, §5, §6, §7
The test system of another assay is KG-1a cells. The assay can be described thus: alamarBlue cytotoxicity assay, 48h. Type of assay: cell-based, human. Particulars: KG-1a (AML), RPMI + 10% FBS. As for the experimental part:
as §1, §2, §3, §4, §5, §6, §7

A further assay relates to U937 cells. Nature of the assay: alamarBlue cytotoxicity assay, 48h. Type of assay: cell-based, human. Conditions: RPMI + 10% FBS. Here is the method:
as §1, §2, §3, §4, §5, §6, §7

Assay [1] has as its system 23 human leukemia cell lines. Nature of the assay: alamarBlue cytotoxicity assay, panel summary. Format: cell-based. As for the experimental part: as §1
In most experiments, cytotoxicity was assessed using alamarBlue assays (Life Technologies, Grand Island, NY). In experiments using NAC and DFO, which can interfere with alamarBlue assay performance, Trypan Blue dye exclusion was used instead.

The subject of assay [2] is MOLM14 cells. The assay can be described thus: clonogenicity (colony formation in semi-solid medium). Format: cell-based, human. Particulars: 24h pretreatment. Here is the method: as §1
(§8) After 7-10d (leukemia cells) or 10-14d (HSPCs), colonies (≥20 cells) were enumerated.

The test system of a further assay is MV-4-11 cells. The assay is described as above. Type of assay: cell-based, human. Particulars: 24h pretreatment. As for the experimental part: as §1, §8
The subject of assay [3] is MOLM14 cells. The assay can be described thus: apoptosis (Annexin-V/7-AAD flow cytometry). Format: cell-based, human. Particulars: 24h. As for the experimental part:
A. Quantification of the percentage of early apoptotic cells (Annexin-V+/7-AAD-) from three independent experiments in which cells were stained for apoptosis with 7-AAD and Annexin-V then analyzed by flow cytometry. […] C. […] 16h after addition of drugs, cells were washed and analyzed by flow cytometry for CM-H2DCFDA fluorescence (indicating total ROS generation) in the FL1 channel. Mean Fluorescence Intensity (MFI) was normalized to that of vehicle control (0.5% DMSO) with no pretreatment. […] Viable cell counts, obtained via Trypan Blue dye exclusion, were normalized to vehicle (0.02% DMSO)-treated samples +/– pretreatment.
Cells were co-stained with […] each 7-AAD and APC-conjugated Annexin-V (BioLegend), in Annexin-V binding buffer and analyzed by flow cytometry. Caspase-3/7 activity was measured using a Caspase-Glo 3/7 Assay (Promega, Madison, WI).
For orientation: Flow cytometry measures light scatter and fluorescence of single cells or particles in a stream.

Another assay deals with normal human CD34+ HSPCs. The assay can be described thus: clonogenicity of normal HSPCs. Format: cell-based. As for the experimental part: Cryopreserved human CD34^+ HSPCs from normal adult donors (Cellular Therapy and Cell Processing Facility, Fred Hutchinson Cancer Center, Seattle, WA) were thawed and cultured for 24h in StemSpanSFEM medium (Stemcell Technologies, Vancouver, BC, Canada) containing 100 ng/ml recombinant human (rh) stem cell factor, 20 ng/ml rh thrombopoietin, and 100 ng/ml rh FLT3 ligand (PeproTech, Rocky Hill, NJ), in the presence of the indicated drug concentrations prior to plating for clonogenic assays.
Cells pretreated with ART-838, AS, or vehicle for 24h were diluted and plated in MethoCult medium (Stemcell Technologies). After 7-10d (leukemia cells) or 10-14d (HSPCs), colonies (≥20 cells) were enumerated.
Supplementary Figure S5: Effects of ART-838 and AS on clonogenicity of normal human CD34+ HSPCs. Normal human CD34+ HSPCs were pretreated with the indicated concentrations of ART-838, AS, or vehicle (0.5% DMSO) for 24 h then cultured in semi-solid medium for 10–14d before colonies were enumerated. A. Total hematopoietic colony counts, normalized to vehicle-treated controls (100%) and B. counts of types of colonies, i.e. erythroid (E); granulocyte/macrophage (sum of GM, G and M, combined) and multilineage progenitors (GEMM). Three independent experiments were performed. Data are represented as mean +/– SEM.
Supplementary Figure S6: ART-838 and AS concentration-response curves for KOPN8 and MOLM14. […]

Like-named read-outs stand apart in the source and are kept apart here. Where only a bound is given, the exact number is not on record here.

One may read the IC50 as the concentration that gives 50% inhibition. For the molecule `C[C@@H]1CCC2[C@@H](C)[C@@H](CC(COP(=O)(Oc3ccccc3)Oc3ccccc3)C[C@H]3O[C@@H]4O[C@@]5(C)CCC6[C@H](C)CCC([C@H]3C)[C@]64OO5)O[C@@H]3O[C@@]4(C)CCC1[C@@]23OO4` (stereo partly drawn) [ART-838, artemisinin-derived trioxane diphenylphosphate dimer 838], the IC50 with SEM cells (SEM (B-ALL), 48h, RPMI + 10% FBS, read-out: IC50) stood at 29 ± 6 nM; in the assay on SEM cells (SEM, original medium DMEM + 10% FBS, read-out: IC50 in original medium), 268 nM; with CCRF-CEM cells, 483 ± 195 nM; in the assay with RCH-ACV cells, 36 ± 12 nM; in the assay on Jurkat cells, 255 ± 155 nM; in the assay with Kasumi-2 cells, 26 ± 4 nM. The half-maximal inhibitory concentration (IC50) with MOLT-3 cells was 97 ± 58 nM; in the assay on K562 cells it was 94 ± 12 nM; in the assay with MOLT-16 cells it was 10 ± 2 nM; with KG-1a cells it was 547 ± 147 nM; in the assay with U937 cells (U937 (AML)) it was 10 ± 1 nM; in [1] (all 23 leukemia cell lines tested, 48h, read-out: IC50 range), 10 to 550 nM. Moreover, the 50% inhibitory concentration (IC50) in assay [1] (including those harboring MLLr and FLT3/ITD, read-out: IC50 against every acute leukemia tested) was below 1000 nM. For the same molecule, the “-Fold Difference in IC50 between media” value in the assay with SEM cells (SEM, DMEM + 10% FBS vs RPMI+10% FBS) was 9.2. In assay [1] (across 23 leukemia cell lines), the “fold more potent than AS (average)” value is 88 fold. Besides, the “fold more potent than AS (range)” value in assay [1] (across 23 leukemia cell lines) is on record as 11-315 fold. Further, the clonogenicity entry with MOLM14 cells [2] (ART-838 0.1 μM) and in the assay with MV-4-11 cells (ART-838 0.1 μM) was “completely abolished” each time. Also, the “fold lower concentration than AS achieving similar levels of apoptosis and caspase-3/7 activity” value in the assay with MOLM14 cells [3] came to 50 fold. Moreover, the “reduction of normal erythroid and monogranulocytic colony-forming cells” value in the assay on normal human CD34+ HSPCs (1 μM ART-838, 24h pretreatment) is below 25%.
On to `C[C@H]1[C@H](OC(=O)CCC(=O)O)O[C@@H]2O[C@@]3(C)CC[C@H]4[C@H](C)CC[C@@H]1[C@@]24OO3` [AS, artesunate], for which the half-maximal inhibitory concentration (IC50) with SEM cells (Homo sapiens, SEM (B-ALL), 48h, RPMI + 10% FBS, read-out: IC50) was determined as 4080 ± 1180 nM; in the assay on SEM cells (Homo sapiens, SEM, original medium DMEM + 10% FBS, read-out: IC50 in original medium) it was 18300 nM; with CCRF-CEM cells (Homo sapiens) it was 7340 ± 1240 nM; in the assay with RCH-ACV cells (Homo sapiens), 3200 ± 540 nM; in the assay on Jurkat cells (Homo sapiens), 4330 ± 1180 nM; with Kasumi-2 cells (Homo sapiens), 6650 ± 340 nM. Moreover, the concentration for half-maximal inhibition (IC50) in the assay on MOLT-3 cells (Homo sapiens) was 4100 ± 620 nM; in the assay with K562 cells (Homo sapiens) it was 4750 ± 850 nM; in the assay with MOLT-16 cells (Homo sapiens), 1630 ± 70 nM; in the assay with KG-1a cells (Homo sapiens), 6260 ± 300 nM; with U937 cells (Homo sapiens, U-937, U937 (AML)), 1060 ± 170 nM; in [1] (Homo sapiens, 48 h, all 23 leukemia cell lines tested, 48h, read-out: IC50 range), 460 to 10300 nM. For the same molecule, the IC50 was 460 to 10000 nM in assay [1] (Homo sapiens, Leukemia Type: ALL, unit only on plot axis of Figure 1A, read-out: IC50 Range); 5000 nM in assay [1] (Homo sapiens, Leukemia Type: ALL, unit only on plot axis of Figure 1A, read-out: Mean IC50); 4800 nM in [1] (Homo sapiens, Leukemia Type: ALL, unit only on plot axis of Figure 1A, read-out: Median IC50); 800 to 6300 nM in assay [1] (Homo sapiens, Leukemia Type: AML, unit only on plot axis of Figure 1A, read-out: IC50 Range); 2300 nM in assay [1] (Homo sapiens, Leukemia Type: AML, unit only on plot axis of Figure 1A, read-out: Mean IC50); 1700 nM in assay [1] (Homo sapiens, Leukemia Type: AML, unit only on plot axis of Figure 1A, read-out: Median IC50). The clonogenicity entry in the assay on MOLM14 cells [2] (AS 10 μM) and with MV-4-11 cells (AS 10 μM) was “substantially reduced” throughout. For the same molecule, the apoptosis result with MOLM14 cells [3] (AS 5 μM) is listed as “induced significant apoptosis”. In the assay with normal human CD34+ HSPCs (10 μM AS, 24h pretreatment), the “reduction of normal erythroid and monogranulocytic colony-forming cells” value is below 25%.
